{"source": "patent US20240287046A1", "about": "“COMPOUNDS AND RADIOLIGANDS FOR TARGETING NEUROTENSIN RECEPTOR AND USES THEREOF” (Full-Life Technologies HK Limited, priority 2022, published 2024)", "test_system": "HT-29 tumor-bearing mice", "assay": "Biodistribution of radionuclide labeled complexes in HT-29 tumor-bearing mice", "format": "in vivo, BALB/c nude mice", "experimental": "The BALB/c nude mice (Charles River, Beijing) were utilized to establish the xenografted model for biodistribution study. All animal care and experimental procedure were performed by following the animal protocols approved by the ethics committee of China Institute of Radiation Protection.\nBriefly, each mouse was inoculated with approximately 4×10^6 ASPC-1 cells (human pancreatic cancer cell line) or HT-29 cells (human colorectal adenocarcinoma cell line) expressing human NTSR-1 by subcutaneous injection at rear flank. After inoculation, the xenografted tumors were allowed to grow for ˜2-4 weeks till the tumor weight reached to about 0.05 to 0.50 g (0.20 g in average).\nBiodistribution studies were performed by administrating the radionuclide labeled test compound at a dose of ˜30-50 μCi (100 μL in 0.9% NaCl, ˜1.11-1.85 MBq, with specific activity 30-250 μCi/nmol) to each animal through tail vein injection.\nAt different time points after the administration, the mice treated with each compound were euthanized. The tissues and organs of the animals in each group were collected, excised, weighed, and analyzed in a PerkinElmer 2480 WIZARD2γ counter, and the percent injected dose (% ID) and % ID/g of each organ or tissue were calculated."}
{"smiles": "COc1cccc(OC)c1-c1cc(C(=O)NC2(C(=O)O)C3CC4CC(C3)CC2C4)nn1-c1ccc(NC(=O)CCCN(C)CCCN(C)C(=O)CN2CCN(CC(=O)[O-])CCN(CC(=O)[O-])CCN(CC(=O)[O-])CC2)cc1C(C)C.[177Lu+3]", "note": "(centres unmarked) [^177Lu-I-5]", "values": [{"measurement": "% ID/g (1 h) Heart", "setting": "Heart, 1 h", "result": "5.76 ± 1.66", "unit": "% ID/g"}, {"measurement": "% ID/g (4 h) Heart", "setting": "Heart, 4 h", "result": "3.15 ± 0.43", "unit": "% ID/g"}, {"measurement": "% ID/g (24 h) Heart", "setting": "Heart, 24 h", "result": "0.31 ± 0.07", "unit": "% ID/g"}, {"measurement": "% ID/g (72 h) Heart", "setting": "Heart, 72 h", "result": "0.89 ± 0.56", "unit": "% ID/g"}, {"measurement": "% ID/g (120 h) Heart", "setting": "Heart, 120 h", "result": "0.13 ± 0.02", "unit": "% ID/g"}, {"measurement": "% ID/g (1 h) Intestine", "setting": "Intestine, 1 h", "result": "2.59 ± 0.76", "unit": "% ID/g"}, {"measurement": "% ID/g (4 h) Intestine", "setting": "Intestine, 4 h", "result": "1.7 ± 0.53", "unit": "% ID/g"}, {"measurement": "% ID/g (24 h) Intestine", "setting": "Intestine, 24 h", "result": "0.7 ± 0.39", "unit": "% ID/g"}, {"measurement": "% ID/g (72 h) Intestine", "setting": "Intestine, 72 h", "result": "1.33 ± 0.88", "unit": "% ID/g"}, {"measurement": "% ID/g (120 h) Intestine", "setting": "Intestine, 120 h", "result": "0.17 ± 0.06", "unit": "% ID/g"}, {"measurement": "% ID/g (1 h) Kidney", "setting": "Kidney, 1 h", "result": "4.34 ± 2.82", "unit": "% ID/g"}, {"measurement": "% ID/g (4 h) Kidney", "setting": "Kidney, 4 h", "result": "3.22 ± 1.54", "unit": "% ID/g"}, {"measurement": "% ID/g (24 h) Kidney", "setting": "Kidney, 24 h", "result": "2.61 ± 0.72", "unit": "% ID/g"}, {"measurement": "% ID/g (72 h) Kidney", "setting": "Kidney, 72 h", "result": "3.55 ± 2.21", "unit": "% ID/g"}, {"measurement": "% ID/g (120 h) Kidney", "setting": "Kidney, 120 h", "result": "0.81 ± 0.23", "unit": "% ID/g"}, {"measurement": "% ID/g (1 h) Liver", "setting": "Liver, 1 h", "result": "5.26 ± 1.02", "unit": "% ID/g"}, {"measurement": "% ID/g (4 h) Liver", "setting": "Liver, 4 h", "result": "4.41 ± 1.88", "unit": "% ID/g"}, {"measurement": "% ID/g (24 h) Liver", "setting": "Liver, 24 h", "result": "2.21 ± 0.36", "unit": "% ID/g"}, {"measurement": "% ID/g (72 h) Liver", "setting": "Liver, 72 h", "result": "4.44 ± 3.4", "unit": "% ID/g"}, {"measurement": "% ID/g (120 h) Liver", "setting": "Liver, 120 h", "result": "0.55 ± 0.3", "unit": "% ID/g"}, {"measurement": "% ID/g (1 h) Lung", "setting": "Lung, 1 h", "result": "9.85 ± 2.58", "unit": "% ID/g"}, {"measurement": "% ID/g (4 h) Lung", "setting": "Lung, 4 h", "result": "3.88 ± 1.04", "unit": "% ID/g"}, {"measurement": "% ID/g (24 h) Lung", "setting": "Lung, 24 h", "result": "0.62 ± 0.32", "unit": "% ID/g"}, {"measurement": "% ID/g (72 h) Lung", "setting": "Lung, 72 h", "result": "0.5 ± 0.19", "unit": "% ID/g"}, {"measurement": "% ID/g (120 h) Lung", "setting": "Lung, 120 h", "result": "0.12 ± 0.1", "unit": "% ID/g"}, {"measurement": "% ID/g (1 h) Muscle", "setting": "Muscle, 1 h", "result": "1.07 ± 0.14", "unit": "% ID/g"}, {"measurement": "% ID/g (4 h) Muscle", "setting": "Muscle, 4 h", "result": "0.66 ± 0.21", "unit": "% ID/g"}, {"measurement": "% ID/g (24 h) Muscle", "setting": "Muscle, 24 h", "result": "0.12 ± 0.04", "unit": "% ID/g"}, {"measurement": "% ID/g (72 h) Muscle", "setting": "Muscle, 72 h", "result": "0.37 ± 0.34", "unit": "% ID/g"}, {"measurement": "% ID/g (120 h) Muscle", "setting": "Muscle, 120 h", "result": "0.06 ± 0.02", "unit": "% ID/g"}, {"measurement": "% ID/g (1 h) Pancreas", "setting": "Pancreas, 1 h", "result": "1.18 ± 0.61", "unit": "% ID/g"}, {"measurement": "% ID/g (4 h) Pancreas", "setting": "Pancreas, 4 h", "result": "1.01 ± 0.71", "unit": "% ID/g"}, {"measurement": "% ID/g (24 h) Pancreas", "setting": "Pancreas, 24 h", "result": "0.15 ± 0.06", "unit": "% ID/g"}, {"measurement": "% ID/g (72 h) Pancreas", "setting": "Pancreas, 72 h", "result": "0.51 ± 0.5", "unit": "% ID/g"}, {"measurement": "% ID/g (120 h) Pancreas", "setting": "Pancreas, 120 h", "result": "0.05 ± 0.02", "unit": "% ID/g"}, {"measurement": "% ID/g (1 h) Spleen", "setting": "Spleen, 1 h", "result": "1.76 ± 0.41", "unit": "% ID/g"}, {"measurement": "% ID/g (4 h) Spleen", "setting": "Spleen, 4 h", "result": "1.22 ± 0.16", "unit": "% ID/g"}, {"measurement": "% ID/g (24 h) Spleen", "setting": "Spleen, 24 h", "result": "0.43 ± 0.09", "unit": "% ID/g"}, {"measurement": "% ID/g (72 h) Spleen", "setting": "Spleen, 72 h", "result": "1.61 ± 1.35", "unit": "% ID/g"}, {"measurement": "% ID/g (120 h) Spleen", "setting": "Spleen, 120 h", "result": "0.8 ± 0.32", "unit": "% ID/g"}, {"measurement": "% ID/g (1 h) Stomach", "setting": "Stomach, 1 h", "result": "1.29 ± 0.31", "unit": "% ID/g"}, {"measurement": "% ID/g (4 h) Stomach", "setting": "Stomach, 4 h", "result": "1.35 ± 0.68", "unit": "% ID/g"}, {"measurement": "% ID/g (24 h) Stomach", "setting": "Stomach, 24 h", "result": "0.29 ± 0.11", "unit": "% ID/g"}, {"measurement": "% ID/g (72 h) Stomach", "setting": "Stomach, 72 h", "result": "0.54 ± 0.53", "unit": "% ID/g"}, {"measurement": "% ID/g (120 h) Stomach", "setting": "Stomach, 120 h", "result": "0.07 ± 0.01", "unit": "% ID/g"}, {"measurement": "% ID/g (1 h) Tumor", "setting": "Tumor, 1 h", "result": "9.74 ± 2.44", "unit": "% ID/g"}, {"measurement": "% ID/g (4 h) Tumor", "setting": "Tumor, 4 h", "result": "20.7 ± 2.21", "unit": "% ID/g"}, {"measurement": "% ID/g (24 h) Tumor", "setting": "Tumor, 24 h", "result": "17.4 ± 4.53", "unit": "% ID/g"}, {"measurement": "% ID/g (72 h) Tumor", "setting": "Tumor, 72 h", "result": "10.02 ± 6.15", "unit": "% ID/g"}, {"measurement": "% ID/g (120 h) Tumor", "setting": "Tumor, 120 h", "result": "6.61 ± 1.12", "unit": "% ID/g"}]}
